Test results from ChEMBL document CHEMBL1275373, “Identification by high-throughput screening of inhibitors of Schistosoma mansoni NAD(+) catabolizing enzyme” (Bioorg Med Chem, 2010).
Calls of active or inactive are those of the source. The rule behind the calls is not given here.

Legend:
Schistosoma mansoni = experiment: Inhibition of Schistosoma mansoni recombinant NAD+ glycohydrolase expressed in Pichia pastoris at up to 100 uM by continuous fluorometric method
[1] = Inhibition of Schistosoma mansoni recombinant NAD+ glycohydrolase expressed in Pichia pastoris by continuous fluorometric method
[2] = Competitive inhibition of Schistosoma mansoni recombinant NAD+ glycohydrolase expressed in Pichia pastoris by Michaelis-Menten equation analysis

IC50 [1] [µM]	Compound	other results
–	CCN(CC)CCCC(C)Nc1ccnc2cc(Cl)ccc12 (configuration not stated)	Activity (Schistosoma mansoni): inactive
–	CN(C)CC(=O)Nc1ccc2[nH]c(=O)c3ccccc3c2c1	inhibition (Schistosoma mansoni): < 10%
–	COc1cc(/C=C/C(=O)CC(=O)/C=C/c2ccc(O)c(OC)c2)ccc1O	inhibition (Schistosoma mansoni): < 10%
–	Cc1ccc(C(=O)Nc2ccc(S(=O)(=O)O)c3cc(S(=O)(=O)O)cc(S(=O)(=O)O)c23)cc1NC(=O)c1cccc(NC(=O)Nc2cccc(C(=O)Nc3cc(C(=O)Nc4ccc(S(=O)(=O)O)c5cc(S(=O)(=O)O)cc(S(=O)(=O)O)c45)ccc3C)c2)c1	inhibition (Schistosoma mansoni): < 10%
–	O=C(C1CCCCC1)N1CC(=O)N2CCc3ccccc3C2C1 (configuration not stated)	inhibition (Schistosoma mansoni): < 10%
–	O=C1NC(=O)c2cccc3cccc1c23	inhibition (Schistosoma mansoni): < 10%
–	OC(c1cc(C(F)(F)F)nc2c(C(F)(F)F)cccc12)C1CCCCN1 (configuration not stated)	Activity (Schistosoma mansoni): inactive
> 100	Oc1cc(O)c2c(c1)OC(c1ccc(O)c(O)c1)C(O)C2 (configuration not stated) [CATECHIN]	–
2.3	Oc1cc(O)c2cc(O)c(-c3ccc(O)c(O)c3)[o+]c2c1 [CYANIDIN]	Ki [2]: 2100 nM
6	Oc1cc(O)c2cc(O)c(-c3cc(O)c(O)c(O)c3)[o+]c2c1 [DELPHINIDIN]	–
9.9	COc1ccc(-c2ccc3c(O)cc(O)cc3[o+]2)cc1O [DIOSMETINIDIN]	–
6.4	Oc1ccc2cc(O)c(-c3ccc(O)c(O)c3)[o+]c2c1 [FISETINIDIN]	–
8.2	OC[C@H]1O[C@@H](Oc2cc3c(O)cc(O)cc3[o+]c2-c2ccc(O)c(O)c2)[C@H](O)[C@@H](O)[C@@H]1O [KUROMANIN]	–
5.9	Oc1cc(O)c2ccc(-c3ccc(O)c(O)c3)[o+]c2c1 [LUTEOLINIDIN]	–
22	O=c1c(O)c(-c2cc(O)c(O)c(O)c2)oc2cc(O)cc(O)c12 [MYRICETIN]	–
4.4	Oc1ccc(-c2[o+]c3cc(O)cc(O)c3cc2O)cc1 [PELARGONIDIN]	–
37.8	COc1cc(-c2[o+]c3cc(O)cc(O)c3cc2O)cc(O)c1O [PETUNIDIN]	–
> 100	Oc1cc(O)cc(/C=C/c2ccc(O)c(O)c2)c1 [PICEATANNOL]	–
6.1	Oc1ccc(-c2[o+]c3cc(O)c(O)c(O)c3cc2O)cc1O [QUERCETAGETINIDIN]	–
1.3	O=c1c(O)c(-c2ccc(O)c(O)c2)oc2cc(O)c(O)c(O)c12 [QUERCETAGETIN]	–
> 100	Oc1ccc(/C=C/c2cc(O)cc(O)c2)cc1 [RESVERATROL]	–
5.8	O=c1c(O)c(-c2cc(O)c(O)c(O)c2)oc2cc(O)ccc12 [ROBINETIN]	–
19.5	O=C1c2c(O)cc(O)cc2OC(c2ccc(O)c(O)c2)C1O (configuration not stated) [TAXIFOLIN]	–

Compound	IC50 [1] [µM]	other results
O=c1cc(-c2ccc(O)c(O)c2)oc2cc(O)cc(O)c12 [LUTEOLIN]	8.4	–
COc1cc(-c2[o+]c3cc(O)cc(O)c3cc2O)cc(OC)c1O [MALVIDIN]	8	–
O=c1c(O)c(-c2ccc(O)c(O)c2)oc2cc(O)cc(O)c12 [QUERCETIN]	3.9	–
